For assay [1], the target named is wild-type un-phosphorylated FGFR4 (Homo sapiens, UniProt P22455). Kind of assay: FGFR Enzymatic Assay (FRET peptide phosphorylation), FGFR4.
Assay [2] has as its target wild-type un-phosphorylated FGFR3 (Homo sapiens, UniProt P22607). Kind of assay: FGFR Enzymatic Assay (FRET peptide phosphorylation), FGFR3.
Assay [3] addresses wild-type un-phosphorylated FGFR2 (Homo sapiens, UniProt P21802). Kind of assay: FGFR Enzymatic Assay (FRET peptide phosphorylation), FGFR2.
Assay [4] concerns the target wild-type un-phosphorylated FGFR1 (Homo sapiens, UniProt P11362). Kind of assay: FGFR Enzymatic Assay (FRET peptide phosphorylation), FGFR1. The settings on record: pre-incubated for 4 hours.
Where [5] appears, read: read-out: FGFR4, wild-type un-phosphorylated FGFR4, pre-incubated for 4 hours.
Where [6] appears, read: read-out: FGFR1, wild-type un-phosphorylated FGFR1.
Where [7] appears, read: FGFR1, wild-type un-phosphorylated FGFR1.

The structures appear in SMILES notation. Like-named read-outs stand apart in the source and are kept apart here.

Sequence of wild-type un-phosphorylated FGFR3 (P22607 23-806): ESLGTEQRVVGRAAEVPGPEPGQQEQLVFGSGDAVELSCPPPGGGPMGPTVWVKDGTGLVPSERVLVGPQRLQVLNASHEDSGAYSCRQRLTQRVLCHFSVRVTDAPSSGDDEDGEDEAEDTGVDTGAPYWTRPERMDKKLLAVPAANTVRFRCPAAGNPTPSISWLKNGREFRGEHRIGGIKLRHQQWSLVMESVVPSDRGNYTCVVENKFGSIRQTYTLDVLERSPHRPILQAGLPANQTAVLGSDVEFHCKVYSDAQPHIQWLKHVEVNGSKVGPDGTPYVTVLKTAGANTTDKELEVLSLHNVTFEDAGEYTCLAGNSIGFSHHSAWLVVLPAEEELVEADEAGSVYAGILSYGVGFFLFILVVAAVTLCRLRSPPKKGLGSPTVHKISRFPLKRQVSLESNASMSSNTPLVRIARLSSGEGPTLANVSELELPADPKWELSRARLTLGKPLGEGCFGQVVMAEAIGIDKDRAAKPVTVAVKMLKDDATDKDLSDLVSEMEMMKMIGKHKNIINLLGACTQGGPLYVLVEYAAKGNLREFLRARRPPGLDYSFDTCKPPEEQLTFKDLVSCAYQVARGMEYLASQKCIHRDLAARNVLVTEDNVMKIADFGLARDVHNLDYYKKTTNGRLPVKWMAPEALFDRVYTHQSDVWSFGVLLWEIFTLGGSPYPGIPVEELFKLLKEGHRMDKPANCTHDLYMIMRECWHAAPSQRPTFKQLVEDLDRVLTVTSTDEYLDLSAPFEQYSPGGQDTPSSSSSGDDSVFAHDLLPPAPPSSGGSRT
Sequence of wild-type un-phosphorylated FGFR4 (P22455 22-802): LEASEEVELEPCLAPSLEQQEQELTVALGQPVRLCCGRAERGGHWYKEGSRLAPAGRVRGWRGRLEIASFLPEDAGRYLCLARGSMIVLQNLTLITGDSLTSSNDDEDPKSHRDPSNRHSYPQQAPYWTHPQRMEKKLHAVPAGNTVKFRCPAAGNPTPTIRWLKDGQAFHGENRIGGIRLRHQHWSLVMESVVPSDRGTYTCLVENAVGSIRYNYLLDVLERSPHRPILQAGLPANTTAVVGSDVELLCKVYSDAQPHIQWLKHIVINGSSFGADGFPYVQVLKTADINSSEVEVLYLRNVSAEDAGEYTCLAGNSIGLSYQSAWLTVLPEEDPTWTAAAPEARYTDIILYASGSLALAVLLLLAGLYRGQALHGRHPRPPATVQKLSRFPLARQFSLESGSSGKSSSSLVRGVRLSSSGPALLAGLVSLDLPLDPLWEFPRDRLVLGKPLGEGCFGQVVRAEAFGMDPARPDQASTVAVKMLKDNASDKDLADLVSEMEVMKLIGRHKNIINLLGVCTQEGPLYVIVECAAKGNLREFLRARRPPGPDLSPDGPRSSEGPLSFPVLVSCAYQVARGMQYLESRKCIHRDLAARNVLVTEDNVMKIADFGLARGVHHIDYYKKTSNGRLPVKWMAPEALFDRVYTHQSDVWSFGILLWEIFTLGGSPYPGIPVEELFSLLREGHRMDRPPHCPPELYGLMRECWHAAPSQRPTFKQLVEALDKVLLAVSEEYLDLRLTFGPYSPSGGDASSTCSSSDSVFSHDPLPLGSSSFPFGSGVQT
Sequence of wild-type un-phosphorylated FGFR2 (P21802 22-821): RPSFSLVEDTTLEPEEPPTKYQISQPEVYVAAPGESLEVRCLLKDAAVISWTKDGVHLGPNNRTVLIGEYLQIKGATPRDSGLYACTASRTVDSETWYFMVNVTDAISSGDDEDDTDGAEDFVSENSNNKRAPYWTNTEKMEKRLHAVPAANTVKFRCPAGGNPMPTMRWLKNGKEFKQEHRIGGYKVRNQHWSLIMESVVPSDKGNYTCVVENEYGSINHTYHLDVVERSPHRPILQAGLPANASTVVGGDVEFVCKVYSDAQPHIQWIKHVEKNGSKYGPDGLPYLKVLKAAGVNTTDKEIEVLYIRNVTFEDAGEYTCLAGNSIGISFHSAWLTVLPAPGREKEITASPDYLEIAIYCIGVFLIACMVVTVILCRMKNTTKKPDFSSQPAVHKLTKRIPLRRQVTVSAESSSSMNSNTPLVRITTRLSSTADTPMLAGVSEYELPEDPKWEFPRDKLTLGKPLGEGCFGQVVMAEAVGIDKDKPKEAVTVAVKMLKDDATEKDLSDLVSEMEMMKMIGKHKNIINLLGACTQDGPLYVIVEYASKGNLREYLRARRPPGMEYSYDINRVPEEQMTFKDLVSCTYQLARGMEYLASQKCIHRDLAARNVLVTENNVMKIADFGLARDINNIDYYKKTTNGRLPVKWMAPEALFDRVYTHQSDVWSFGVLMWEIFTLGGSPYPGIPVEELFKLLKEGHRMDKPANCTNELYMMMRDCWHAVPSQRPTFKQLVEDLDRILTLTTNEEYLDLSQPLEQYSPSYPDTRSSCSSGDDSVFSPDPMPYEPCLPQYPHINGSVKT
Sequence of wild-type un-phosphorylated FGFR1 (P11362 22-822): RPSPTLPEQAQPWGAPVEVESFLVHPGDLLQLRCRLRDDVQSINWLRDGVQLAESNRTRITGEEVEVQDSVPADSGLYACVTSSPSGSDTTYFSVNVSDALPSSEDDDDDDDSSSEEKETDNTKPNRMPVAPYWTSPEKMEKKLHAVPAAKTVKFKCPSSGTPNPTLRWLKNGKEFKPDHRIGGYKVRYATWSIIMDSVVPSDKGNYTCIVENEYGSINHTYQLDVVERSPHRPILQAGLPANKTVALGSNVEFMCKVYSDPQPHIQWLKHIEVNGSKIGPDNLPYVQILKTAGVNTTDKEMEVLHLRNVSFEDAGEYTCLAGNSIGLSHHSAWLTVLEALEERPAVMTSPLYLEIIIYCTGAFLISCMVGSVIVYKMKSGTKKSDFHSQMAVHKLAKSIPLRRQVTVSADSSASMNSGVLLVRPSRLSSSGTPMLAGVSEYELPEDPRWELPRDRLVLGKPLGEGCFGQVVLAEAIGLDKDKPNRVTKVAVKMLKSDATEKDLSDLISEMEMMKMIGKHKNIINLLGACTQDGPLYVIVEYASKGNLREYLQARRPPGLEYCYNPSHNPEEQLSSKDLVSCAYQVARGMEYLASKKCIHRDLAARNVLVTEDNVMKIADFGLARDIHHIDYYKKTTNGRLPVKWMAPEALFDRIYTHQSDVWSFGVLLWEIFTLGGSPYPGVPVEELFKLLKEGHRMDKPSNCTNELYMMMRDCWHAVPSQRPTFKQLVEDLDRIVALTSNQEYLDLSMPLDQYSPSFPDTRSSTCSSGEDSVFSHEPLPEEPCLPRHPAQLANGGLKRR

Take `COc1cc2[nH]nc(-c3ccc(C4(C#N)CCN(C(=O)CO)CC4)nc3)c2nc1-c1cccc2c1CCC2` [Example 165, 4-(5-(5-(2,3-Dihydro-1H-inden-4-yl)-6-methoxy-1H-pyrazolo[4,3-b]pyridin-3-yl)pyridin-2-yl)-1-(2-hydroxyacetyl)piperidine-4-carbonitrile]: the IC50 is 6 to 40 nM in assay [1] (setting [5]), under 6 nM in assay [2], under 6 nM in assay [3] and 6 to 40 nM in assay [4] (setting [6]).
As for `COCCN1CCN(c2ccc(-c3n[nH]c4cc(OC)c(-c5cccc(CC#N)c5C)nc34)cn2)CC1` [Example 166, 2-(3-(6-Methoxy-3-(6-(4-(2-methoxyethyl)piperazin-1-yl)pyridin-3-yl)-1H-pyrazolo[4,3-b]pyridin-5-yl)-2-methylphenyl)acetonitrile], the IC50 is 40 to 100 nM in assay [1], under 6 nM in assay [2], under 6 nM in assay [3] and 40 to 100 nM in assay [4] (setting [7]).
With `[2H]C1(n2cc(-c3n[nH]c4cc(OC)c(-c5cccc6c5CCC6C#N)nc34)cn2)CCN(C(=O)C2CCOCC2)CC1` (centres unmarked) [Example 167, 4-(6-Methoxy-3-(1-(1-(tetrahydro-2H-pyran-4-carbonyl)piperidin-4-yl-4-d)-1H-pyrazol-4-yl)-1H-pyrazolo[4,3-b]pyridin-5-yl)-2,3-dihydro-1H-indene-1-carbonitrile], the IC50 in assay [1] was 40 to 100 nM; in assay [2], under 6 nM; in assay [3], under 6 nM; in assay [4] (setting [7]) it was 40 to 100 nM.
Regarding `COc1cc2[nH]nc(-c3cnn([C@H]4CCN(C(=O)[C@@H]5CCCO5)C4)c3)c2nc1-c1cccc2c1CCC2C#N` (stereo partly drawn) [Example 169, 4-(6-Methoxy-3-(1-((S)-1-((S)-tetrahydrofuran-2-carbonyl)pyrrolidin-3-yl)-1H-pyrazol-4-yl)-1H-pyrazolo[4,3-b]pyridin-5-yl)-2,3-dihydro-1H-indene-1-carbonitrile], the IC50 in assay [1] was 40 to 100 nM; in assay [2] it was under 6 nM; in assay [3], under 6 nM; in assay [4] (setting [6]) it was 6 to 40 nM.
Turning to `COc1cc2[nH]nc(-c3ccc(N4CCN5C[C@H](O)C[C@H]5C4)nc3)c2nc1-c1cccc2c1CCC2` [Example 170, (7R,8aS)-2-(5-(5-(2,3-Dihydro-1H-inden-4-yl)-6-methoxy-1H-pyrazolo[4,3-b]pyridin-3-yl)pyridin-2-yl)octahydropyrrolo[1,2-a]pyrazin-7-ol], the IC50 was 6 to 40 nM in assay [1] (setting [5]), under 6 nM in assay [2], under 6 nM in assay [3] and 6 to 40 nM in assay [4] (setting [6]).
In the case of `COc1cc2[nH]nc(-c3ccc(N4CC(N(C)C(=O)CO)C4)nc3)c2nc1-c1cccc2c1CCC2` [Example 171, N-(1-(5-(5-(2,3-Dihydro-1H-inden-4-yl)-6-methoxy-1H-pyrazolo[4,3-b]pyridin-3-yl)pyridin-2-yl)azetidin-3-yl)-2-hydroxy-N-methylacetamide], the IC50 is 6 to 40 nM in assay [1] (setting [5]), under 6 nM in assay [2], under 6 nM in assay [3] and 6 to 40 nM in assay [4] (setting [6]).
Regarding `COc1cc2[nH]nc(-c3ccc(C4CN(C(=O)C5CCCO5)C4)nc3)c2nc1-c1cccc2c1CCC2` (centres unmarked) [Example 172, (3-(5-(5-(2,3-Dihydro-1H-inden-4-yl)-6-methoxy-1H-pyrazolo[4,3-b]pyridin-3-yl)pyridin-2-yl)azetidin-1-yl)(tetrahydrofuran-2-yl)methanone], the IC50 in assay [1] was 40 to 100 nM; in assay [2] it was under 6 nM; in assay [3] it was under 6 nM; in assay [4] (setting [7]) it was 40 to 100 nM.
With `COc1cc2[nH]nc(-c3ccc(C4CN(C(=O)[C@@H]5CCCCN5C)C4)nc3)c2nc1-c1cccc2c1CCC2` [Example 173, (S)-(3-(5-(5-(2,3-Dihydro-1H-inden-4-yl)-6-methoxy-1H-pyrazolo[4,3-b]pyridin-3-yl)pyridin-2-yl)azetidin-1-yl)(1-methylpiperidin-2-yl)methanone], the IC50 in assay [1] (setting [5]) is 6 to 40 nM; in assay [2], under 6 nM; in assay [3] it was under 6 nM; in assay [4] (setting [6]) it was 6 to 40 nM.
For `COc1cc2[nH]nc(-c3ccc(C4CN(C(=O)CN(C)C)C4)nc3)c2nc1-c1cccc2c1CCC2` [Example 174, 1-(3-(5-(5-(2,3-Dihydro-1H-inden-4-yl)-6-methoxy-1H-pyrazolo[4,3-b]pyridin-3-yl)pyridin-2-yl)azetidin-1-yl)-2-(dimethylamino)ethan-1-one], the IC50 in assay [1] was 40 to 100 nM; in assay [2], under 6 nM; in assay [3], under 6 nM; in assay [4] (setting [6]) it was 6 to 40 nM.
In the case of `COc1cc2[nH]nc(-c3ccc(C4CN(C(=O)CCO)C4)nc3)c2nc1-c1cccc2c1CCC2` [Example 175, 1-(3-(5-(5-(2,3-Dihydro-1H-inden-4-yl)-6-methoxy-1H-pyrazolo[4,3-b]pyridin-3-yl)pyridin-2-yl)azetidin-1-yl)-3-hydroxypropan-1-one], the IC50 is 6 to 40 nM in assay [1] (setting [5]), under 6 nM in assay [2], under 6 nM in assay [3] and 6 to 40 nM in assay [4] (setting [6]).
With `COc1cc2[nH]nc(-c3ccc(C4CN(C(=O)CO)C4)nc3)c2nc1-c1cccc2c1CCC2` [Example 176, 1-(3-(5-(5-(2,3-Dihydro-1H-inden-4-yl)-6-methoxy-1H-pyrazolo[4,3-b]pyridin-3-yl)pyridin-2-yl)azetidin-1-yl)-2-hydroxyethan-1-one], the IC50 was 40 to 100 nM in assay [1], under 6 nM in assay [2], under 6 nM in assay [3] and 6 to 40 nM in assay [4] (setting [6]).
As to `COc1cc2[nH]nc(-c3ccc(C4CN(C(=O)[C@H](C)O)C4)nc3)c2nc1-c1cccc2c1CCC2` [Example 177, (S)-1-(3-(5-(5-(2,3-Dihydro-1H-inden-4-yl)-6-methoxy-1H-pyrazolo[4,3-b]pyridin-3-yl)pyridin-2-yl)azetidin-1-yl)-2-hydroxypropan-1-one], the IC50 is 40 to 100 nM in assay [1], under 6 nM in assay [2], under 6 nM in assay [3] and 40 to 100 nM in assay [4] (setting [7]).
With `COc1cc2[nH]nc(-c3ccc(C4CC(N(C)C(=O)CO)C4)nc3)c2nc1-c1cccc2c1CCC2` (centres unmarked) [Example 178, N-(3-(5-(5-(2,3-Dihydro-1H-inden-4-yl)-6-methoxy-1H-pyrazolo[4,3-b]pyridin-3-yl)pyridin-2-yl)cyclobutyl)-2-hydroxy-N-methylacetamide], the IC50 in assay [1] (setting [5]) is 6 to 40 nM; in assay [2], under 6 nM; in assay [3], under 6 nM; in assay [4] (setting [6]) it was 6 to 40 nM.
In the case of `[2H]C1(c2ccc(-c3n[nH]c4cc(OC)c(-c5cccc6c5CCC6)nc34)cn2)CN(C(=O)CO)C1` [Example 179, 1-(3-(5-(5-(2,3-Dihydro-1H-inden-4-yl)-6-methoxy-1H-pyrazolo[4,3-b]pyridin-3-yl)pyridin-2-yl)azetidin-1-yl-3-d)-2-hydroxyethan-1-one], the IC50 in assay [1] (setting [5]) is 6 to 40 nM; in assay [2], under 6 nM; in assay [3], under 6 nM; in assay [4] (setting [6]) it was 6 to 40 nM.
For `COC(=O)N1CCC(c2ccc(-c3n[nH]c4cc(OC)c(-c5cccc6c5CCC6C#N)nc34)cn2)CC1` (centres unmarked) [Example 180, Methyl 4-(5-(5-(1-Cyano-2,3-dihydro-1H-inden-4-yl)-6-methoxy-1H-pyrazolo[4,3-b]pyridin-3-yl)pyridin-2-yl)piperidine-1-carboxylate], the IC50 in assay [1] was 40 to 100 nM; in assay [2], under 6 nM; in assay [3], under 6 nM; in assay [4] (setting [7]), 40 to 100 nM.
Turning to `COc1cc2[nH]nc(-c3ccc(C4CN(CCC#N)C4)nc3)c2nc1-c1cccc2c1CCC2` [Example 187, 3-(3-(5-(5-(2,3-Dihydro-1H-inden-4-yl)-6-methoxy-1H-pyrazolo[4,3-b]pyridin-3-yl)pyridin-2-yl)azetidin-1-yl)propanenitrile], the IC50 in assay [1] (setting [5]) is 6 to 40 nM; in assay [2], under 6 nM; in assay [3] it was under 6 nM; in assay [4] (setting [6]) it was 6 to 40 nM.
As for `COCC(=O)N(C)C1CC(c2ccc(-c3n[nH]c4cc(OC)c(-c5cccc6c5CCC6)nc34)cn2)C1` (centres unmarked) [Example 188, N-(3-(5-(5-(2,3-Dihydro-1H-inden-4-yl)-6-methoxy-1H-pyrazolo[4,3-b]pyridin-3-yl)pyridin-2-yl)cyclobutyl)-2-methoxy-N-methylacetamide], the IC50 in assay [1] (setting [5]) is 6 to 40 nM; in assay [2], under 6 nM; in assay [3], under 6 nM; in assay [4] (setting [6]), 6 to 40 nM.
On to `COc1cc2[nH]nc(-c3ccc(C4CC(N(C)C(=O)CCO)C4)nc3)c2nc1-c1cccc2c1CCC2` (centres unmarked) [Example 189, N-(3-(5-(5-(2,3-Dihydro-1H-inden-4-yl)-6-methoxy-1H-pyrazolo[4,3-b]pyridin-3-yl)pyridin-2-yl)cyclobutyl)-3-hydroxy-N-methylpropanamide], for which the IC50 is 6 to 40 nM in assay [1] (setting [5]), under 6 nM in assay [2], under 6 nM in assay [3] and 6 to 40 nM in assay [4] (setting [6]).
In the case of `COc1cc2[nH]nc(-c3ccc(C4CC(N(C)C(=O)[C@H](C)O)C4)nc3)c2nc1-c1cccc2c1CCC2` (stereo partly drawn) [Example 190, (S)-N-(3-(5-(5-(2,3-Dihydro-1H-inden-4-yl)-6-methoxy-1H-pyrazolo[4,3-b]pyridin-3-yl)pyridin-2-yl)cyclobutyl)-2-hydroxy-N-methylpropanamide], the IC50 in assay [1] is 40 to 100 nM; in assay [2], under 6 nM; in assay [3] it was under 6 nM; in assay [4] (setting [6]) it was 6 to 40 nM.
As for `COc1cc2[nH]nc(-c3ccc(C45CC4CN(C(=O)CO)C5)nc3)c2nc1-c1cccc2c1CCC2` (centres unmarked) [Example 191A, 1-(1-(5-(5-(2,3-Dihydro-1H-inden-4-yl)-6-methoxy-1H-pyrazolo[4,3-b]pyridin-3-yl)pyridin-2-yl)-3-azabicyclo[3.1.0]hexan-3-yl)-2-hydroxyethan-1-one], the IC50 in assay [1] (setting [5]) was 6 to 40 nM; in assay [2], under 6 nM; in assay [3] it was under 6 nM; in assay [4] (setting [6]) it was 6 to 40 nM.

For the origin of these results see patent US12083124B2 (Incyte Corporation, priority 2019, dated 2024).
